Measurements taken from ChEMBL document CHEMBL3885861, “Open TG-GATES”.

Species on record: Rattus norvegicus
Assay: Open TG-GATES - Regimen: Daily Repeat
Type: toxicity, organism-based, Sprague-Dawley
Set-up: regimen Daily Repeat, gender Male, age 6 weeks
Details: in vivo, po, 10 mg/kg, route gavage, dose level Low; for APTT / Bas / Eos / Fbg / Hb / Ht / Lym / MCHC / MCV / Mono / Neu / PT / Plat / RBC / Ret / WBC: tissue Blood
[1] = 72 h, tissue Kidney, time 3 day
[2] = 72 h, tissue Plasma, time 3 day

CS(=O)(=O)Nc1ccc([N+](=O)[O-])cc1Oc1ccccc1 [NIMESULIDE]
TERMINAL_BW (72 h, time 3 day): 219.5 g
APTT (72 h, time 3 day): 16.3 s
Bas (72 h, time 3 day): 0%
Eos (72 h, time 3 day): 1.2%
Fbg (72 h, time 3 day): 208.8 mg/dL
Hb (72 h, time 3 day): 14 g/dL
Ht (72 h, time 3 day): 41.3%
Lym (72 h, time 3 day): 74.8%
MCHC (72 h, time 3 day): 33.9%
MCV (72 h, time 3 day): 63.4 fL
Mono (72 h, time 3 day): 6.8%
Neu (72 h, time 3 day): 17%
PT (72 h, time 3 day): 11.4 s
Plat (72 h, time 3 day): 114.4 x10_4/uL
RBC (72 h, time 3 day): 651.8 x10_4/ul
Ret (72 h, time 3 day): 10%
WBC (72 h, time 3 day): 94 x10_2/uL
KIDNEY_L [1]: 1 g
KIDNEY_R [1]: 1 g
KIDNEY_TOTAL [1]: 1.9 g
LIVER (72 h, tissue Liver, time 3 day): 10.2 g
ALP [2]: 1001.2 IU/L
ALT [2]: 38.2 IU/L
AST [2]: 62.8 IU/L
BUN [2]: 18.8 mg/dL
CRE [2]: 0.6 mg/dL
Ca [2]: 10.8 mg/dL
Cl [2]: 103.6 meq/L
DBIL [2]: 0.056 mg/dL
GLC [2]: 195 mg/dL
IP [2]: 7.7 mg/dL
K [2]: 4.9 meq/L
LDH [2]: 105.6 IU/L
Na [2]: 139.4 meq/L
PL [2]: 145 mg/dL
RALB [2]: 4 g/dL
TBIL [2]: 0.3 mg/dL
TC [2]: 80 mg/dL
TG [2]: 75.8 mg/dL
TP [2]: 5.5 g/dL
gamma-GTP [2]: 1.2 IU/L
TERMINAL_BW ([…], time 7 day): 242.4 g
TERMINAL_BW ([…], time 14 day): 296.6 g
TERMINAL_BW ([…], time 28 day): 395.2 g
APTT ([…], time 7 day): 17.2 s
Bas ([…], time 7 day): 0%
Eos ([…], time 7 day): 1%
Fbg ([…], time 7 day): 220.8 mg/dL
Hb ([…], time 7 day): 14.3 g/dL
Ht ([…], time 7 day): 41.8%
Lym ([…], time 7 day): 75.2%
MCHC ([…], time 7 day): 34.2%
MCV ([…], time 7 day): 61.7 fL
Mono ([…], time 7 day): 8.2%
Neu ([…], time 7 day): 15.4%
PT ([…], time 7 day): 11.2 s
Plat ([…], time 7 day): 129.4 x10_4/uL
RBC ([…], time 7 day): 678.4 x10_4/ul
Ret ([…], time 7 day): 4.9%
WBC ([…], time 7 day): 103.5 x10_2/uL
APTT ([…], time 14 day): 17.9 s
Bas ([…], time 14 day): 0%
Eos ([…], time 14 day): 1%
Fbg ([…], time 14 day): 227.8 mg/dL
Hb ([…], time 14 day): 14.5 g/dL
Ht ([…], time 14 day): 42.4%
Lym ([…], time 14 day): 83.8%
MCHC ([…], time 14 day): 34.3%
MCV ([…], time 14 day): 62.7 fL
Mono ([…], time 14 day): 4.8%
Neu ([…], time 14 day): 10.8%
PT ([…], time 14 day): 11.8 s
Plat ([…], time 14 day): 117.1 x10_4/uL
RBC ([…], time 14 day): 676.2 x10_4/ul
Ret ([…], time 14 day): 5.6%
WBC ([…], time 14 day): 121.2 x10_2/uL
APTT ([…], time 28 day): 18.6 s
Bas ([…], time 28 day): 0%
Eos ([…], time 28 day): 1%
Fbg ([…], time 28 day): 214.2 mg/dL
Hb ([…], time 28 day): 15.2 g/dL
Ht ([…], time 28 day): 45%
